Test results: US9995734B2, “Human T cell line assay for evaluating the immunologic identity of glatiramer acetate preparations” (Mylan Inc., priority 2013, dated 2018)
Marks after values point to notes of the source that are not given here.

Test system: Donor 3 GMA T-Cell Lines
Assay: ATP proliferation assay (CellTiter Glo), Donor 3 GMA T-cell lines, incl. reactivity to non-canonical GA peptides
Format: cell-based, human

Substance: glatiramer acetate [COP]
- response in proliferation assay (165-B5G, 165-D8G, 165-E7G, 165-F5G, Day 56, 0, 1, 5, 10, 100 μg/mL, GMA and COP responses comparable): responded well
- Proliferation (luminescent ATP assay), Mean (T-cell line 165-05G, 1 μg/mL antigen, Day 50 of culturing, No Antigen Value 2149): 6791 RLU
- Proliferation (luminescent ATP assay), Mean (T-cell line 165-05G, 3 μg/mL antigen, Day 50 of culturing, No Antigen Value 2149): 42584 RLU
- Proliferation (luminescent ATP assay), Mean (T-cell line 165-05G, 10 μg/mL antigen, Day 50 of culturing, No Antigen Value 2149): 56893 RLU
- Proliferation (luminescent ATP assay), Mean (T-cell line 165-05G, 30 μg/mL antigen, Day 50 of culturing, No Antigen Value 2149): 55001 RLU
- Mean, ATP proliferation assay (T-cell line 165-B2G, 1 μg/mL, Day 40): 3779
- Mean, ATP proliferation assay (T-cell line 165-B2G, 3 μg/mL, Day 40): 11983
- Mean, ATP proliferation assay (T-cell line 165-B2G, line COP 10 μg/mL, footnote: well contained 3 μg/mL COP, Day 40): 10980*
- Proliferation (luminescent ATP assay), Mean (T-cell line 165-B5G, 1 μg/mL antigen, Day 81 of culturing, No Antigen Value 2432): 6275 RLU
- Mean, ATP proliferation assay (T-cell line 165-B5G, 1 μg/mL, Day 40): 3672
- Proliferation (luminescent ATP assay), Mean (T-cell line 165-B5G, 3 μg/mL antigen, Day 81 of culturing, No Antigen Value 2432): 7499 RLU
- Mean, ATP proliferation assay (T-cell line 165-B5G, 3 μg/mL, Day 40): 3673
- Proliferation (luminescent ATP assay), Mean (T-cell line 165-B5G, 10 μg/mL antigen, Day 81 of culturing, No Antigen Value 2432): 10914 RLU
- Mean, ATP proliferation assay (T-cell line 165-B5G, 10 μg/mL, Day 40): 14282
- Proliferation (luminescent ATP assay), Mean (T-cell line 165-B5G, 30 μg/mL antigen, Day 81 of culturing, No Antigen Value 2432): 13974 RLU
- Mean, ATP proliferation assay (T-cell line 165-C4G, 1 μg/mL, Day 40): 3143
- Mean, ATP proliferation assay (T-cell line 165-C4G, 3 μg/mL, Day 40): 3959
- Mean, ATP proliferation assay (T-cell line 165-C4G, line COP 10 μg/mL, footnote: well contained 3 μg/mL COP, Day 40): 3717*
- Mean, ATP proliferation assay (T-cell line 165-C5G, 1 μg/mL, Day 40): 12667
- Mean, ATP proliferation assay (T-cell line 165-C5G, 3 μg/mL, Day 40): 24835
- Mean, ATP proliferation assay (T-cell line 165-C5G, 10 μg/mL, Day 40): 47537
- Mean, ATP proliferation assay (T-cell line 165-C8G, 1 μg/mL, tested with the Donor 3 COP lines of Table 25): 400 RLU
- Mean, ATP proliferation assay (T-cell line 165-C8G, 3 μg/mL, tested with the Donor 3 COP lines of Table 25): 4821 RLU
- Mean, ATP proliferation assay (T-cell line 165-C8G, 10 μg/mL, tested with the Donor 3 COP lines of Table 25): 22961 RLU
- Mean, ATP proliferation assay (T-cell line 165-D8G, 1 μg/mL, Day 40): 8088
- Mean, ATP proliferation assay (T-cell line 165-D8G, 3 μg/mL, Day 40): 8722
- Mean, ATP proliferation assay (T-cell line 165-D8G, 10 μg/mL, Day 40): 28872
- Proliferation (luminescent ATP assay), Mean (T-cell line 165-E7G, 1 μg/mL antigen, Day 81 of culturing, No Antigen Value 2145): 4217 RLU
- Mean, ATP proliferation assay (T-cell line 165-E7G, 1 μg/mL, Day 40): 3794
- Proliferation (luminescent ATP assay), Mean (T-cell line 165-E7G, 3 μg/mL antigen, Day 81 of culturing, No Antigen Value 2145): 5366 RLU
- Mean, ATP proliferation assay (T-cell line 165-E7G, 3 μg/mL, Day 40): 4147
- Proliferation (luminescent ATP assay), Mean (T-cell line 165-E7G, 10 μg/mL antigen, Day 81 of culturing, No Antigen Value 2145): 7619 RLU
- Mean, ATP proliferation assay (T-cell line 165-E7G, 10 μg/mL, Day 40): 12565
- Proliferation (luminescent ATP assay), Mean (T-cell line 165-E7G, 30 μg/mL antigen, Day 81 of culturing, No Antigen Value 2145): 7161 RLU
- Proliferation (luminescent ATP assay), Mean (T-cell line 165-E9G, 1 μg/mL antigen, Day 50 of culturing, No Antigen Value 1742): 1999 RLU
- Mean, ATP proliferation assay (T-cell line 165-E9G, 1 μg/mL, Day 40): 3216
- Proliferation (luminescent ATP assay), Mean (T-cell line 165-E9G, 3 μg/mL antigen, Day 50 of culturing, No Antigen Value 1742): 5538 RLU
- Mean, ATP proliferation assay (T-cell line 165-E9G, 3 μg/mL, Day 40): 5584
- Mean, ATP proliferation assay (T-cell line 165-E9G, 10 μg/mL, Day 40): 25454
- Proliferation (luminescent ATP assay), Mean (T-cell line 165-E9G, 30 μg/mL antigen, Day 50 of culturing, No Antigen Value 1742): 38286 RLU
- Proliferation (luminescent ATP assay), Mean (T-cell line 165-E9G, 10 μpg/mL antigen, Day 50 of culturing, No Antigen Value 1742): 38813 RLU
- Mean, ATP proliferation assay (T-cell line 165-F2G, 1 μg/mL, Day 40): 1700
- Mean, ATP proliferation assay (T-cell line 165-F2G, 3 μg/mL, Day 40): 1332
- Mean, ATP proliferation assay (T-cell line 165-F2G, 10 μg/mL, Day 40): 1554
- Mean, ATP proliferation assay (T-cell line 165-F5G, 1 μg/mL, Day 40): 4332
- Mean, ATP proliferation assay (T-cell line 165-F5G, 3 μg/mL, Day 40): 6099
- Mean, ATP proliferation assay (T-cell line 165-F5G, 10 μg/mL, Day 40): 19498
- Mean, ATP proliferation assay (T-cell line 165-F8G, 1 μg/mL, Day 40): 3690
- Mean, ATP proliferation assay (T-cell line 165-F8G, 3 μg/mL, Day 40): 3184
- Mean, ATP proliferation assay (T-cell line 165-F8G, 10 μg/mL, Day 40): 10663
